# Reference: US9440950B2, “Arginine methyltransferase inhibitors and uses thereof” (Epizyme, Inc., priority 2013, dated 2016)
# Molecular target: T1, human PRMT8 (Homo sapiens, UniProt Q9NR22)
# T1 construct: Full-length human PRMT8 (NM_019854.4) isoform 1 transcript clone; made in house
# Experiment: PRMT8 Biochemical Assay
# Settings: peptide substrate, 3H-SAM Flashplate assay
# From the text: S-adenosylmethionine (SAM), S-adenosylhomocysteine (SAH), bicine, Tween20, dimethylsulfoxide (DMSO), bovine skin gelatin (BSG), isopropyl-P3-D-thiogalactopyranoside (IPTG), and Tris(2-carboxyethyl)phosphine hydrochloride solution (TCEP) were purchased from Sigma-Aldrich at the highest level of purity possible. ^3H-SAM was purchase from American Radiolabeled Chemicals with a specific activity of 80 Ci/mmol. 384-well streptavidin Flashplates were purchased from PerkinElmer.
# Peptide representative of human histone H4 residues 31-45 was synthesized with an N-terminal linker-affinity tag motif and a C-terminal amide cap by 21st Century Biochemicals. The peptide was purified by high-performance liquid chromatography (HPLC) to greater than 95% purity and confirmed by liquid chromatography mass spectrometry (LC-MS). The sequence was Biot-Ahx-[…]-amide (SEQ ID NO.:8).
# The resulting construct encodes an N-terminal GST tag and a thrombin cleavage sequence ([…] […] […] […]) (SEQ ID NO.:9) fused directly to Met 1 of PRMT8.
# E. coli (BL21(DE3) Gold, Stratagene) made competent by the CaCl2 method were transformed with the PRMT8 construct and ampicillin selection. Protein over-expression was accomplished by growing the PRMT8 expressing E. coli clone and inducing expression with 0.3 mM IPTG at 16° C. The culture was grown for 12 hours, harvested by centrifugation, and stored at −80° C. for purification.
# The column was washed with 50 mM phosphate buffer, 100 mM NaCl, 5% glycerol, 5 mM β-mercaptoethanol, pH 7.8 and PRMT8 was eluted by 100 mM phosphate in the same buffer. Protein was concentrated and buffer was exchanged to 50 mM Tris, 300 mM NaCl, 10% glycerol, 5 mM β-mercaptoethanol, pH 7.8 by ultrafiltration. The purity of recovered protein was 89%.
# General Procedure for PRMT8 Enzyme Assays on Peptide Substrates.
# The assays were all performed in a buffer consisting of 20 mM Bicine (pH=7.6), 1 mM TCEP, 0.005% BSG, and 0.002% Tween 20, prepared on the day of use. Compounds in 100% DMSO (1 ul) were spotted into a polypropylene 384-well V-bottom plates (Greiner) using a Platemate Plus outfitted with a 384-channel head (Thermo Scientific). DMSO (1 ul) was added to Columns 11, 12, 23, 24, rows A-H for the maximum signal control and 1 ul of SAH, a known product and inhibitor of PRMT8, was added to columns 11, 12, 23, 24, rows I-P for the minimum signal control. A cocktail (40 ul) containing the PRMT8 enzyme was added by Multidrop Combi (Thermo-Fisher). The compounds were allowed to incubate with PRMT8 for 30 min at room temperature, then a cocktail (10 ul) containing ^3H-SAM and peptide was added to initiate the reaction (final volume=51 ul). The final concentrations of the components were as follows: PRMT8 was 1.5 nM, ^3H-SAM was 50 nM, non-radiolabeled SAM was 550 nM, peptide was 150 nM, SAH in the minimum signal control wells was 1 mM, and the DMSO concentration was 2%. The assays were stopped by the addition of non-radiolabeled SAM (10 ul) to a final concentration of 400 uM, which dilutes the ^3H-SAM to a level where its incorporation into the peptide substrate is no longer detectable. 50 ul of the reaction in the 384-well polypropylene plate was then transferred to a 384-well Flashplate and the biotinylated peptides were allowed to bind to the streptavidin surface for at least 1 hour before being washed once with 0.1% Tween20 in a Biotek ELx405 plate washer. The plates were then read in a PerkinElmer TopCount plate reader to measure the quantity of ^3H-labeled peptide bound to the Flashplate surface, measured as disintegrations per minute (dpm) or alternatively, referred to as counts per minute (cpm).
# Where dpm=disintegrations per minute, cmpd=signal in assay well, and min and max are the respective minimum and maximum signal controls.
# Where top and bottom are the normally allowed to float, but may be fixed at 100 or 0 respectively in a 3-parameter fit. […]
# T1 sequence (Q9NR22 whole entry, canonical isoform): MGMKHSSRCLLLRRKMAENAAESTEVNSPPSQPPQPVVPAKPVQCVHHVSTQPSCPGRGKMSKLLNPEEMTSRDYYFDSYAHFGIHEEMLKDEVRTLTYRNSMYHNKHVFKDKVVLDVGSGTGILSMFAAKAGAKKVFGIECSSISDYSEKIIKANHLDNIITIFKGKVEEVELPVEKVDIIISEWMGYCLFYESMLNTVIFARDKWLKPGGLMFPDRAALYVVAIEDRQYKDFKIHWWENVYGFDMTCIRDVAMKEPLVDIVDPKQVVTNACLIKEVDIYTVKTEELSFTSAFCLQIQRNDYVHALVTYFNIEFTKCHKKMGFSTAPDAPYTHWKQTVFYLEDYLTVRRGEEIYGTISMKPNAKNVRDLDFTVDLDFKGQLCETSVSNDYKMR
row,Compound,IC50
1,CNCCN(C)Cc1c[nH]nc1-c1ccc(N)nc1 [Compound 3],3.01 to 10 µM
2,Cc1cncc(-c2n[nH]cc2CN(C)CCN)c1 [Compound 6],1.01 to 3 µM
3,CN(CCN)Cc1c[nH]nc1-c1ccc(NCc2ccccc2)nc1 [Compound 25],1.01 to 3 µM
4,COc1cc(-c2n[nH]cc2CN(C)CCN)ccn1 [Compound 11],1.01 to 3 µM
5,COc1ncc(Cl)cc1-c1n[nH]cc1CN(C)CCN [Compound 14],3.01 to 10 µM
6,CN(CCN)Cc1c[nH]nc1-c1cncc(S(C)(=O)=O)c1 [Compound 4],≥ 10 µM
7,CC(C)CNc1ccc(-c2n[nH]cc2CN(C)CCN)cn1 [Compound 26],1.01 to 3 µM
8,CN(CCN)Cc1c[nH]nc1-c1cncc(Cl)c1 [Compound 19],1.01 to 3 µM
9,CN(CCN)Cc1c[nH]nc1-c1ccncc1 [Compound 9],0.101 to 1 µM
10,CN(CCN)Cc1c[nH]nc1-c1cncc(C#N)c1 [Compound 18],3.01 to 10 µM
11,CN(CCN)Cc1c[nH]nc1-c1cncc(F)c1 [Compound 7],1.01 to 3 µM
12,CNCCN(C)Cc1c[nH]nc1-c1cccnc1 [Compound 1],1.01 to 3 µM
13,CC(C)CN(C)c1ccc(-c2n[nH]cc2CN(C)CCN)cn1 [Compound 21],1.01 to 3 µM
14,Cc1cc(-c2n[nH]cc2CN(C)CCN)cnc1Cl [Compound 10],0.101 to 1 µM
15,COc1cc(-c2n[nH]cc2CN(C)CCN)c(Cl)cn1 [Compound 12],3.01 to 10 µM
16,COc1ncccc1-c1n[nH]cc1CN(C)CCN [Compound 15],1.01 to 3 µM
17,"CN(CCN)Cc1c[nH]nc1-c1ccc(C#N)nc1 [Compound 28, 5-(4-(((2-aminoethyl)(methyl)amino)methyl)-1H-pyrazol-3-yl)picolinonitrile]",0.101 to 1 µM
18,Cc1ccncc1-c1n[nH]cc1CN(C)CCN [Compound 17],3.01 to 10 µM
19,COc1ccc(-c2n[nH]cc2CN(C)CCN)cn1 [Compound 5],1.01 to 3 µM
20,CN(CCN)Cc1c[nH]nc1-c1cccnc1 [Compound 8],1.01 to 3 µM
21,CN(CCN)Cc1c[nH]nc1-c1ccccn1 [Compound 27],≥ 10 µM
22,COc1ccncc1-c1n[nH]cc1CN(C)CCN [Compound 16],3.01 to 10 µM
23,CNCCN(C)Cc1c[nH]nc1-c1ccc(O)nc1 [Compound 2],≥ 10 µM
24,CCN(CC)c1ccc(-c2n[nH]cc2CN(C)CCN)cn1 [Compound 24],1.01 to 3 µM
25,CC(C)Oc1ccc(-c2n[nH]cc2CN(C)CCN)cn1 [Compound 22],0.101 to 1 µM
26,CN(CCN)Cc1c[nH]nc1-c1cnccc1C(F)(F)F [Compound 29],≥ 10 µM
27,CN(CCN)Cc1c[nH]nc1-c1ccc(N2CCOCC2)nc1 [Compound 20],0.101 to 1 µM
28,"CN(CCN)Cc1c[nH]nc1-c1ccc(C(F)(F)F)nc1 [Compound 13, N^1-methyl-N^1-((3-(6-(trifluoromethyl)pyridin-3-yl)-1H-pyrazol-4-yl)methyl)ethane-1,2-diamine]",0.101 to 1 µM
29,CN(CCN)Cc1c[nH]nc1-c1ccc(N(C)Cc2ccccc2)nc1 [Compound 23],0.101 to 1 µM
